Test results taken from patent publication EP2269977B1, “Inhibitors of the 11-beta-hydroxysteroid dehydrogenase Type 1 enzyme” (AbbVie Inc., priority 2005, dated 2006).

Columns and labels:
[1] = Metabolic stability screen in human liver microsomes; format: in vitro ADME; conditions: substrate 10 µM, microsomal protein 0.1- 0.5 mg/ml, 1mM NADPH, pH 7.4, 37°C, 30 min incubation, LC/MS, read-out: Human Liver Microsomal Turnover
Protocol: (§1) Metabolic stability screen: each substrate (10 µM) was incubated with microsomal protein (0.1- 0.5 mg/ml) in 50mM potassium phosphate buffer (pH 7.4) in 48-Well plate. The enzyme reaction was initiated by the addition of 1mM NADPH, then incubated at 37°C in a Forma Scientific incubator (Marietta, OH, USA) with gentle shaking. The reactions were quenched by the addition of 800 µl of ACN/MeOH (1:1, v/v), containing 0.5 µM of internal standard (IS), after 30 min incubation. Samples were then filtered by using Captiva 96-Well Filtration (Varian, Lake Forest, CA, USA) and analyzed by LC/MS (mass spectrometry). Liver microsomal incubations were conducted in duplicate.
(§2) The parent remaining in the incubation mixture was determined by LC/MS. […] A Luna C8(2) (50 x 2.0 mm, particle size 3 µm, Phenomenex, Torrance, CA, USA) was used to quantify each compound at ambient temperature. […]
(§3) The peak area ratios (each substrate over IS) at each incubation time were expressed as the percentage of the ratios (each substrate over IS) of the control samples (0 min incubation). The parent remaining in the incubation mixture was expressed as the percentage of the values at 0 min incubation. The percentage turnover is calculated using the following equation (%turnover =[…] - %parent remaining) and is recorded as the percentage turnover in the Table 2. […]

[2] = Metabolic stability screen in mouse liver microsomes; format: in vitro ADME; conditions: substrate 10 µM, microsomal protein 0.1- 0.5 mg/ml, 1mM NADPH, pH 7.4, 37°C, 30 min incubation, LC/MS, read-out: Mouse Liver Microsomal Turnover
Protocol: as §1, §2, §3

metabolised at 0.5 h, 10 µM [1]: 88%
metabolised at 0.5 h, 10 µM [2]: 86%
Compound: CC(C)(Oc1ccc(Cl)cc1)C(=O)NC1C2CC3CC(C2)CC1C3 (centres unmarked) [EE, N-adamantan-2-yl-2-(4-chloro-phenoxy)-2-methyl-propionamide]
